According to paper PMC12267109, “The enzyme kinetics of branched‐chain fatty acid synthesis of metazoan fatty acid synthase” (Protein Science : A Publication of the Protein Society, 2025):

Experiments:
[1] = molecular target: T1, metazoan fatty acid synthase (mFAS), murine FAS (Mus musculus, UniProt P19096); assay: NADPH consumption assay with purified mFAS; GC-MS of methyl-branched fatty acid products; type: biochemical
T1 construct: gene Fasn; full length mFAS

[2] = molecular target: T1, metazoan fatty acid synthase (mFAS), murine FAS; assay: NADPH consumption by purified mFAS, fluorescence; type: biochemical

T1 sequence (P19096 whole entry): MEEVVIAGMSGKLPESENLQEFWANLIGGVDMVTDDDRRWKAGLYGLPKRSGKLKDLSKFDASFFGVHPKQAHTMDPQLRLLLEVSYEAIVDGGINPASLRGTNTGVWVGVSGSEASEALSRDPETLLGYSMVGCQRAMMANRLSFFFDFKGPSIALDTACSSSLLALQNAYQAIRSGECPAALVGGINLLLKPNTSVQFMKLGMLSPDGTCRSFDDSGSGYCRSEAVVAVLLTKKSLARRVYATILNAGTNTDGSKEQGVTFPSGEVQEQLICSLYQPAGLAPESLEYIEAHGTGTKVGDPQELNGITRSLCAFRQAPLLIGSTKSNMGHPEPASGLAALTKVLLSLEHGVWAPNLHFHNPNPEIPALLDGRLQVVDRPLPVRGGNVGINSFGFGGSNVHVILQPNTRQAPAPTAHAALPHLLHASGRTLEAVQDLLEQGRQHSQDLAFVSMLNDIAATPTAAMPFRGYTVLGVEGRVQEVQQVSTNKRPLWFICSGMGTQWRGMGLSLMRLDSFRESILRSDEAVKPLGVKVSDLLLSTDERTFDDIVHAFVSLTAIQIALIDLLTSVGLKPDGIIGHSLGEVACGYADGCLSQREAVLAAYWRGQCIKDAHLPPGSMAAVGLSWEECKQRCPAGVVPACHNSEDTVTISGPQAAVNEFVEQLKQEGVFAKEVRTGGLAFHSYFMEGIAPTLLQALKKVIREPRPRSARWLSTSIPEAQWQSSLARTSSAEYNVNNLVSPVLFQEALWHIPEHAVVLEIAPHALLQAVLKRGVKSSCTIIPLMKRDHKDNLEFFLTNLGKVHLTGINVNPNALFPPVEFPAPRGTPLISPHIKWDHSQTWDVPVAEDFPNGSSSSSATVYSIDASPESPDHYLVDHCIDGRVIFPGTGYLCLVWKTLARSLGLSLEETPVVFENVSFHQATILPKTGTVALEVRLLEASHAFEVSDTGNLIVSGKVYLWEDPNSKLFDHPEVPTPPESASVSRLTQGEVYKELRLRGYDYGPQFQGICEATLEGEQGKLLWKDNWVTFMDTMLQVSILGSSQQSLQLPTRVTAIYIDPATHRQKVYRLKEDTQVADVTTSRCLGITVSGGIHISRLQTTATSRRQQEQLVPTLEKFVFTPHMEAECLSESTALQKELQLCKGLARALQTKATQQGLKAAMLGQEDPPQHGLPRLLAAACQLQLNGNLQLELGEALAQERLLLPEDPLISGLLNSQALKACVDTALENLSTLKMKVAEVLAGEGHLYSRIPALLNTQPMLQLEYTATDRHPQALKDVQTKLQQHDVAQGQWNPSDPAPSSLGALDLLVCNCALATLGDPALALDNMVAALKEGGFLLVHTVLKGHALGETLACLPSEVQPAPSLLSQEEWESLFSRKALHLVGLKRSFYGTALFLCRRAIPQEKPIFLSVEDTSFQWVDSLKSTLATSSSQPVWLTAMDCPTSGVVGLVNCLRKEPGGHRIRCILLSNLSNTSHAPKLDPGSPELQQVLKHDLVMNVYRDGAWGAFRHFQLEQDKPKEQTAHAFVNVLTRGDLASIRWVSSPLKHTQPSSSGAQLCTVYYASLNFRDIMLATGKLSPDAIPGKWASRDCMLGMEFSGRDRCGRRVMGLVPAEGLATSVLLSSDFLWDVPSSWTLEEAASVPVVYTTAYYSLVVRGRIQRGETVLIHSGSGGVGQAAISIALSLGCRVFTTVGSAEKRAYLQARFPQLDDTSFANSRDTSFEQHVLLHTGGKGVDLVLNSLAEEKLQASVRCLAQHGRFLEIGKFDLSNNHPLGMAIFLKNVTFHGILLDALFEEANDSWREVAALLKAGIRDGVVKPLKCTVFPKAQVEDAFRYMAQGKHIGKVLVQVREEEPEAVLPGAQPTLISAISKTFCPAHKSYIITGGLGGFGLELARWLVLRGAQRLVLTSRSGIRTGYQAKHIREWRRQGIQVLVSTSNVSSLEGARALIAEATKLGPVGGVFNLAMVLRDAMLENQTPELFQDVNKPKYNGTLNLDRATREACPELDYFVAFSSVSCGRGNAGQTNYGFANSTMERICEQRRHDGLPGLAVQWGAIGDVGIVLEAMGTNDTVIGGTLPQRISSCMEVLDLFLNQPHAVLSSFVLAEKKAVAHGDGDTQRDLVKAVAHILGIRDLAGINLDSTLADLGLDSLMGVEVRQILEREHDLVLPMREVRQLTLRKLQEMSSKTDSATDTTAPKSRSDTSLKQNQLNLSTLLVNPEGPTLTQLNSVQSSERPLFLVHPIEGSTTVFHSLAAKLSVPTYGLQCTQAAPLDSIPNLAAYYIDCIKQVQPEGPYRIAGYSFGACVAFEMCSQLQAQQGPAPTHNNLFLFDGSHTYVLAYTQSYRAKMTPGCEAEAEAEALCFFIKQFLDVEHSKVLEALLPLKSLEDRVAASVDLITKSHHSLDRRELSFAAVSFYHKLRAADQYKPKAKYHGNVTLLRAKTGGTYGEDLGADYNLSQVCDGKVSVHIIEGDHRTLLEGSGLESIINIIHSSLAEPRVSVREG

| Structure (SMILES) | NADPH consumption assay with purified mFAS; GC-MS of methyl-branched fatty acid [1] | NADPH consumption by purified mFAS, fluorescence [2] |
| --- | --- | --- |
| CC(C(=O)O)C(=O)SCCNC(=O)CCNC(=O)[C@H](O)C(C)(C)COP(=O)(O)OP(=O)(O)OC[C@H]1O[C@@H](n2cnc3c(N)ncnc32)[C@H](O)[C@@H]1OP(=O)(O)O (mixture of isomers) [methylmalonyl-CoA] | we observed increasing activity with increasing metmal‐CoA in the absence of starter substrates | – |
| NC(=O)C1=CN([C@@H]2O[C@H](COP(=O)(O)OP(=O)(O)OC[C@H]3O[C@@H](n4cnc5c(N)ncnc54)[C@H](OP(=O)(O)O)[C@@H]3O)[C@@H](O)[C@H]2O)C=CC1 [NADPH] | – | (NADPH) consumption of the integrated β‐ketoacyl reductase and enoyl reductase domains |
